Target: human autotaxin (ATX) (Homo sapiens (Human), UniProt Q13822)
Test: Human Autotaxin Assay
Format: biochemical
Conditions: concentrated conditioned media from Hep3B cells; LPC substrate, choline release
Method in brief: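 Autotaxin source: Hep3B conditioned medium concentrated 20-fold, preincubated with compound 15 min at 37° C in lyso-PLD buffer (100 mM Tris pH 9, 500 mM NaCl, 5 mM MgCl2, 5 mM CaCl2, 0.05% Triton X-100, ±0.2% fatty-acid-free HSA). 100 uM LPC (14:0) then added, 1.5-3 hours at 37° C; choline release measured.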

Compound	IC50 [nM]
Cc1c(Sc2cccc(C(=O)O)c2)c2ccc(Cl)c(F)c2n1CC(=O)N1CCc2c(F)cc(F)cc21 [Compound 1-70, 3-((6-Chloro-1-(2-(4,6-difluoroindolin-1-yl)-2-oxoethyl)-7-fluoro-2-methyl-1H-indol-3-yl)thio)benzoic acid]	≤ 500
Cc1c(Sc2cccc(C(=O)O)c2)c2ccc(Cl)c(F)c2n1CC(=O)N1CC2(CCCC2)c2ccccc21 [Compound 1-39, 3-((6-Chloro-7-fluoro-2-methyl-1-(2-oxo-2-(spiro[cyclopentane-1,3′-indolin]-1′-yl)ethyl)-1H-indol-3-yl)thio)benzoic acid]	≤ 500
Cc1c(Sc2cccc(C(=O)O)c2)c2ccc(Cl)c(F)c2n1CC(=O)N1CC(N2CCC(F)(F)C2)C1 [Compound 1-42, 3-((6-Chloro-1-(2-(3-(3,3-difluoropyrrolidin-1-yl)azetidin-1-yl)-2-oxoethyl)-7-fluoro-2-methyl-1H-indol-3-yl)thio)benzoic acid]	≤ 500

More lines, now with the values ahead:

IC50 [nM]	Compound
≤ 500	O=C(O)c1cccc(Sc2c(Cl)n(CCN3CC4(CC4)c4ccccc43)c3c(F)c(Cl)ccc23)c1F [Compound 5-2, Sodium 3-((2,6-dichloro-7-fluoro-1-(2-(spiro[cyclopropane-1,3′-indolin]-1′-yl)ethyl)-1H-indol-3-yl)thio)-2-fluorobenzoate]
≤ 500	Cc1c(Sc2cccc(C(=O)O)c2F)c2ccc(Cl)c(F)c2n1CCN1CC2(CCC2)c2ccccc21 [Compound 2-75, 3-((6-Chloro-7-fluoro-2-methyl-1-(2-(spiro[cyclobutane-1,3′-indolin]-1′-yl)ethyl)-1H-indol-3-yl)thio)-2-fluorobenzoic acid]
